Legend:
[1] = tested on: lens epithelial cells in pig eye capsular bags; assay: Lens epithelial cell growth in pig eye capsular bags (trypan blue cell counting); type: cell-based; details: 7 days culture
Experimental: (§1) Pig eye capsular bags were prepared by phacoemulsification followed by capsulorhexis and incubated in Dulbecco's Modified Eagle's Medium (DMEM) supplemented with 10% FBS and 1% penicillin and streptomycin without or with AR inhibitors, sorbinil (50 μM) and fidarestat (10-30 μM) for 7 days in 5% CO2 condition at 37° C. Medium was replaced with fresh medium without or with AR inhibitors every day. At the end of incubation, capsular bags were examined under the dissection microscope, cut into four pieces and flat mounted on glass slide with cellular side facing up. The pieces of capsular bags were fixed with 4% paraformaldehyde for 3-4 h at 4° C. After fixation, they were washed, transferred to 70% alcohol and stored at 4° C. until used for immunohistochemical analysis.
The pig eye capsular bags were incubated for 7 days as described above. The lens epithelial cells were detached from capsular bags by incubating with 0.25% trypsin-EDTA solution. The trypsinized cells were harvested, washed with PBS and re-suspended in PBS. To determine cell growth, equal volumes of cell suspension and trypan blue were mixed and the cells which excluded trypan blue dye were counted manually by using a hemocytometer.
Phacoemulsification technique for cataract surgery in humans was used to operate enucleated pig eyes. After removing the lens, a capsular tension ring was inserted in the capsular bag. The capsular bag was then cultured in complete growth-medium without or with AR inhibitors. […] After 7 days in culture, the ring was removed and the cells were harvested by trypsinization. The harvested cells were counted using trypan blue exclusion principle.

NF-κB DNA binding = assay: Electrophoretic mobility shift assay (EMSA) of NF-κB in HLEC; type: cell-based, human; details: inhibitor 20 μM, no b-FGF
Experimental: Adenovirus SV-40 viral DNA-transformed human lens epithelial cells (HLE-B3; HLEC) were purchased from ATCC. Cells were maintained in DMEM supplemented with 20% heat-inactivated FBS, and 50 μg/ml gentamicin. The cells were grown in a humidified incubator at 37° C. and 5% CO2. The HLEC were pretreated with 20 μM of AR inhibitors sorbinil or zopolrestat for overnight in medium containing 0.5% FBS followed by stimulation with various concentrations (0-100 ng/mL) of b-FGF for 24 h and cell viability and expression of α-SMA, β-crystallin and ICAM-1 was quantified. To investigate the effect of b-FGF on NF-κB and MAPK activation, HLEC were starved in medium containing 0.5% FBS with or without AR inhibitors for overnight. The cells were washed with serum-free medium followed by incubation in serum-free medium without or with AR inhibitor containing 50 ng/mL b-FGF for different time intervals.
The HLEC in 150 cm^2 culture flasks were pretreated without or with AR inhibitors for 24 h in serum-free medium, followed by treatment with b-FGF (50 ng/ml) for 1 h at 37° C. The nuclear extracts were prepared as described earlier (Ramana et al., 2003). The Consensus oligonucleotides for NF-κB transcription factors were 5′-end labeled using T4 polynucleotide kinase. EMSA was performed as described earlier (Ramana et al., 2003.). […]

[2] = tested on: α-SMA, β-crystallin and ICAM-1 expression; assay: Immunohistochemical analysis of flat-mounted pig eye capsular bags; type: cell-based; details: 7 days of culture; sorbinil 50 μM, fidarestat 30 μM
Experimental: as §1
The capsular bag specimens flat mounted on slides were washed thrice with PBS and incubated with blocking solution containing 2% BSA, 0.1% Triton-X100, 5% normal goat serum for 1 h at room temperature. Subsequently specimens were washed, incubated with antibodies against α-SMA, β-crystallin, PCNA, and ICAM-1 for 1 h at room temperature. The slides were stained with either LSAB-HRP system (Dako, Carpinteria, Calif.) or incubated with respective FITC labeled secondary antibodies. The samples were examined by using Nikon epifluoroscence microscope (EPI-800 microscope) connected to a computer with Metamorph software.

Compound | most effective dose at which LEC growth was significantly (p<0.001) inhibited ([1]; doses 10-30 μM tested) | inhibiting the growth of LEC in pig eye capsular bags ([1]; fidarestat 10-30 μM) | basal activity of NF-κB with inhibitor alone (NF-κB DNA binding) | inhibition at 50 µM ([1]; Sus scrofa, Epithelial cell, 168 h, sorbinil 50 μM, pig eye capsular bags, vs control) | expression of α-SMA and β-crystallin in capsular bags (immunohistochemistry) [2]
NC(=O)[C@@H]1C[C@]2(NC(=O)NC2=O)c2cc(F)ccc2O1 [fidarestat, (2S,4S)-2-aminoformyl-6-fluoro-spiro[chroman-4,4′-imidazolidine]-2′,5′-dione] | 30 µM | dose-dependent response |  |  | 
O=C(O)Cc1nn(Cc2nc3cc(C(F)(F)F)ccc3s2)c(=O)c2ccccc12 [zopolrestat] |  |  | did not affect |  | 
O=C1NC(=O)[C@@]2(CCOc3ccc(F)cc32)N1 [sorbinil, (S)-6-fluoro-2,3-dihydrospiro[4H-1-benzopyran-4,4′-imidazolidine]-2′,5′-dione] |  |  | did not affect | ~74% | only few cells expressed α-SMA and β-crystallin

Reference: patent publication US20090270490A1, “METHODS INVOLVING ALDOSE REDUCTASE INHIBITION” (THE BOARD OF REGENTS OF THE UNIVERSITY OF TEXAS SYSTEM, priority 2008, published 2009)
